Like-named read-outs stand apart in the source and are kept apart here.
Legend:
NMDAR [1] = test: NMDA receptor [3H]-MK-801 competition radioligand binding in rat forebrain; conditions: [3H]-MK-801 1 nM competition, 1 mM glutamate, 0.1 mM glycine, pH 7.4, 2 h ambient, N = 1-4
Procedure: (§1) Rat forebrains from 7-8 week old Sprague-Dawley rats (BioChemed, USA) were homogenized in a buffer containing 10 mM HEPES and 1 mM EDTA (pH 7.4) using a mechanical homogenizer (Janke-Kunkel Ultra-Turrax T25). A 10 mL volume was used per brain for all steps involving suspension of the brain homogenate tissue. The brain homogenate was then centrifuged (15 minutes at 20,000 RPM and 4 ° C). The supernatant was carefully poured off and the pellet was resuspended in fresh 10 mM HEPES and 1 mM EDTA containing buffer. This process was repeated 5 times. Following the 5th centrifugation, the buffer was replaced with a buffer containing 10 mM HEPES (pH 7.4). The homogenate was then incubated in a water bath at 37 ° C in the dark (covered with foil). Centrifugation was then repeated 3 additional times and after resuspending in the HEPES buffer, the final homogenate was aliquoted and stored at −80 ° C until use. Protein concentration of the homogenate was determined by utilizing the Bradford method using Coomassie protein assay reagent (Sigma, USA) with Bovine Serum albumin (Sigma, USA) as a standard.
At the time of the experiment, the homogenate was diluted to a final concentration of […] in 10 mM HEPES buffer, 1 mM glutamate, and 0.1 mM glycine (pH 7.4) and combined with 1 nM (+)-[3H]-MK-801 (Perkin Elmer NET972250UC), unlabeled competitor compounds at varying concentrations, or 30 uM MK-801 to determine non-specific binding, in a total volume of 1 mL in a 96 well plate. The protein homogenate is always added to the wells last. The plates were covered with aluminum foil, and placed on a mechanical shaker (250 RPM) for 2 h at ambient temperature ([…]). After 2 h, the homogenate was collected by vacuum filtration using a Unifilter-96 Cell Harvester (Perkin Elmer) over presoaked UniFilter-96 GF/C P Microplates (Perkin Elmer) and filters were washed with room temperature 10 mM HEPES buffer (pH 7.4) (3×1 mL). The filter plates were dried overnight in a fume hood. The next day, the bound tritium was measured via liquid scintillation counting with […] MicroScint-O (Perkin Elmer) added per well, using a MicroBeta2 Plate Reader with 6-detectors scintillation counter (Perkin Elmer) at 55% efficiency. IC50 value estimates were determined in GraphPad Prism 9.3.1 using non-linear regression (single site fit) with log-concentration plotted against percent specific binding. Ki values were calculated using the equation of Cheng and Prusoff. […] Experiments were performed in duplicate. N=1-4 per compound.

hSERT = biological target: T1, hSERT (Homo sapiens, UniProt P31645); test: SERT [3H]-citalopram competition radioligand binding, hSERT expressing HEK293 cell membranes
T1 construct: no vendor name is printed for this cell line) RBHSTM-K; host or cells: HEK293
Procedure: Valiscreen Serotonin Transporter (SERT) (Human) Cell Line (HEK293 host cells, Product No: RBHSTM-K) grown in DMEM/F12 media with 10% FBS, 0.1 mg/ml Geneticin, 1% GlutaMAX, and 1% Penicillin-Streptomycin added were used to prepare SERT membrane fractions. Cells were grown in 150 mm dishes and harvested between 70-90% confluency, passages 5-20. Cells were detached using a buffer containing 1 mM HEPES and 2 mM EDTA (pH 7.4). After detachment, the cells were homogenized using a handheld homogenizer, and the lysate was centrifuged (30 minutes at 30,000×G) at 4 ° C The resulting pellet was resuspended in storage buffer containing 20 mM HEPES, 10 mM MgCl2, 0.1 mM EDTA, and 10% sucrose at pH 7.4. Protein concentration was determined via the Bradford method using Coomassie protein assay reagent (Sigma, USA) with Bovine Serum albumin (Sigma, USA) as standard.
Buffer containing 10 mM HEPES, 120 mM NaCl, and 5 mM KCl (pH 7.4) was added to SERT membranes to dilute to a final protein concentration of 5 µg/mL per well. Additionally, 0.5 nM [3H]-Citalopram (Perkin Elmer NET1039250UC) was added, along with unlabeled competitors at various concentrations or […] citalopram for nonspecific binding controls, bringing the total volume to 1 ml in a 96 well plate. SERT membranes were always added last to each well. The plates were covered from light with aluminum foil and incubated at ambient temperature ([…]) and placed on a mechanical shaker (250RPM) for 2 h. After 2 h, SERT protein was captured via vacuum filtration using a Unifilter-96 Cell Harvester (Perkin Elmer) over presoaked UniFilter-96 GF/C P Microplates (Perkin Elmer) and filters were washed with room temperature 10 mM HEPES, 120 mM NaCl, and 5 mM KCl buffer (pH 7.4) (3×1 mL). The filter plates were dried overnight in a fume hood. The next day, the SERT bound tritium was measured via liquid scintillation counting with MicroScint-O (Perkin Elmer), using a MicroBeta2 Plate Reader with 6-detectors scintillation counter (Perkin Elmer) at 55% efficiency. IC50 value estimates were determined in GraphPad Prism 9.3.1 using non-linear regression (single site fit) with log-concentration plotted against percent specific binding. […] For each experiments compounds were run in duplicate. N=1-3 repeats per compound.

[2] = biological target: T2, human Dopamine Transporter (Homo sapiens, UniProt Q01959); test: Human dopamine reuptake transporter (DAT) inhibition functional study, ASP+ uptake in CHO cells; type: cell-based; conditions: at 10,000 nM, 10 μM ASP+, 1 h, CHO cells stably expressing human DAT
T2 construct: host or cells: CHO
Procedure: CHO cells stably expressing human Dopamine Transporter Protein (Valiscreen® Perkin Elmer RBHDATM-K) were cultured in 150 mm Tissue Culture dishes (Cell Treat 229651) at 37 ° C and 5% CO2. Ham's F-12 Nutrient Mix (Gibco, USA) was supplemented with 10% dialyzed FBS (Gibco, USA), 100 µg/ml Geneticin (Gibco, USA), and 100 units/ml Penicillin and Streptomycin (Gibco, USA) as the culture media. Cells were maintained on a consistent splitting and assay schedule and utilized until passage 30 (no change in control experiments were observed up to this point).
Cells were detached from their growth dishes using Trypsin-EDTA (0.25%) (Gibco, USA) at 70-80% confluency. The cells were counted and diluted in culture media to a density of 300,000 cells/mL. 200 µl of this mixture was added to each well of a clear bottom, black-walled 96 well plate (Coming 3603, USA). Plates were incubated in the laminar flow hood for one hour prior to being placed in the cell culture incubator in order to encourage even cell distribution across the entire well surface.
The next day, Krebs-Ringer HEPES (KRH) Buffer pH 7.4 was prepared (10 mM HEPES, 130 mM NaCl, 1.3 mM KCl, 2.2 mM CaCl2, 1.2 mM MgSO4, 1.2 mM KH2PO4) and titrated with 6N NaOH. This buffer was stored in a 4 ° C refrigerator for up to 4 days (after which it was discarded). Additionally, a solution containing KRH buffer and 330 µM Trypan Blue (Sigma T6146-25G), a solution of 20 mM ASP+(MedChem Express, NJ, USA) dissolved in DMSO, were both prepared. The 20 mM DMSO stock of ASP+ was diluted to a working concentration of 40 µM in KRH buffer. DMSO solutions of 40 mM GBR-12935 dihydrochloride (MedChem Express, NJ, USA) and 40 mM test compounds were also prepared. DMSO solutions of test compounds were then diluted to a range of […]-40 μM in KRH Buffer with 1% additional DMSO added to provide consistent DMSO concentration in all samples. […] The final DMSO concentration in each well was 0.3%. […] KRH buffer with DMSO “vehicle control” served as the total fluorescence control to represent the maximum amount of substrate uptake without DAT transporter inhibition.
At the time of assay, cell media was carefully removed from the wells via pipette aspiration. 100 μL of KRH buffer was then added to all wells. Both controls, non-specific and total fluorescence stock solutions were then added to the plate (50 µL of either 400 µM GBR-12935 or KRH DMSO buffer respectively). Additionally, GBR-12935 and test compounds were added to the plate ([…] for each sample). The 10,000 nM concentration of test compound was run in triplicate wells. Next, […] ASP+(final concentration of 10 μM) was added to each well initiating the experiment. Cells were placed in the cell culture incubator for one hour, at which point 20 µL of 330 µM Trypan Blue was added to each well to quench extracellular fluorescence. The cells were then placed in the microplate reader (BioTek Synergy Neo 2), using Gen5 Ver 3.11 software. The reader was preheated to 37 ° C and following a brief orbital shake, intracellular fluorescence was measured using a fluorescence intensity reading. Intracellular ASP+ was excited at 430 nm and emission read at 510 nm via a bottom read using the extended gain settings and high lamp energy setting.

NMDAR [3] = test: Homologous binding experiments with MK-801; conditions: rat forebrain
Procedure: as §1, with “The homogenate was then incubated in a water bath at 37 ° C in the dark (covered with foil). Centrifugation was then repeated 3 additional times and after resuspending in the HEPES buffer, the final homogenate was aliquoted and stored at −80 ° C until use.” left out
At the time of the experiment, the homogenate was diluted to a final concentration of […] in 10 mM HEPES buffer, 1 mM glutamate, and 0.1 mM glycine (pH 7.4) and combined with 1 nM (+)-[3H]-MK-801 (Perkin Elmer NET972250UC), unlabeled competitor compounds at varying concentrations, or 30 uM MK-801 to determine non-specific binding, in a total volume of 1 mL in a 96 well plate. […] IC50 value estimates were determined in GraphPad Prism 9.3.1 using non-linear regression (single site fit) with log-concentration plotted against percent specific binding. […]

[4] = 0.5 nM [3H]-citalopram competition, hSERT HEK293 membranes, pH 7.4, 2 h ambient, N = 1, read-out: SERT pKi (converted)

T1 sequence (P31645 whole entry): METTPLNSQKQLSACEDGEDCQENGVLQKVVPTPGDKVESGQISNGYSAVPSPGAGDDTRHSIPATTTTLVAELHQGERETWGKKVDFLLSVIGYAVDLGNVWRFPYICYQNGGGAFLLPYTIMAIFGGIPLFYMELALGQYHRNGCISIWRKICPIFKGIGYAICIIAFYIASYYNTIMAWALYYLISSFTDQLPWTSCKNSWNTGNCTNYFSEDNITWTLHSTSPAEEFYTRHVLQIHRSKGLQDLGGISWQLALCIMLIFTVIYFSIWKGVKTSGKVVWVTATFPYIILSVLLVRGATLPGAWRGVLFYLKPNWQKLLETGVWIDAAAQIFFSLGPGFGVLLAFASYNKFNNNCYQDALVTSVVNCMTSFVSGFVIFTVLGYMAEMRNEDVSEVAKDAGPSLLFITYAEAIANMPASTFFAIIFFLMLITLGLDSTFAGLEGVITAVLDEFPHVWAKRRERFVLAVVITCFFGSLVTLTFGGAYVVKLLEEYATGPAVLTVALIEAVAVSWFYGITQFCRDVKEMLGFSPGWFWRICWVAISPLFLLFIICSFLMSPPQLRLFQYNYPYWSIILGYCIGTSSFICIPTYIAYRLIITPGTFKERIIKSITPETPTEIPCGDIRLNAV
T2 sequence (Q01959 whole entry): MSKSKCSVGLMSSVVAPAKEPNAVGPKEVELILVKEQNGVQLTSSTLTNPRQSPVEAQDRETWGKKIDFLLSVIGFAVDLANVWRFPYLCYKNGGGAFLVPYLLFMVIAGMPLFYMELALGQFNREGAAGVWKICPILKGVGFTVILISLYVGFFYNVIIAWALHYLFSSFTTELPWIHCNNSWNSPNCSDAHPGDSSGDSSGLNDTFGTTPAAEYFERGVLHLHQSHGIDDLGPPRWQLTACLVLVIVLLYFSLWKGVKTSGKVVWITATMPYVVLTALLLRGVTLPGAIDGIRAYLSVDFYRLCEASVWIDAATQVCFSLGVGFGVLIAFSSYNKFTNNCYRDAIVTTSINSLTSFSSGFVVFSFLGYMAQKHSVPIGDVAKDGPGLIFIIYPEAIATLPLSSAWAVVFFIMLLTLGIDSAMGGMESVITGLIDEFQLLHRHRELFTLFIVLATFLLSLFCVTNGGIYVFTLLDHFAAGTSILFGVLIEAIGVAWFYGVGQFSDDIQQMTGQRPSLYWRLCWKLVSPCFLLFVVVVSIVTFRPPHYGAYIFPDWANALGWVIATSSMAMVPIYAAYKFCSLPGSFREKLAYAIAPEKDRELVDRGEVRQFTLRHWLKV

| SMILES | NMDAR binding affinity pKi (mean ± SEM) (NMDAR [1]) | IC50 (hSERT) [µM] | inhibition at 10 µM [2] [%] | Kd (NMDAR [3]) [µM] | Ki (hSERT) [µM] | Ki (hSERT; [4]) [µM] |
| --- | --- | --- | --- | --- | --- | --- |
| NC(c1ccccc1)(C1CCCC1)C1CC1 (stereo not shown) [Compound 5, Cyclopentyl(cyclopropyl)(phenyl)methanamine] | 6.23 ± 0.046 | > 10 | 1.3 |  |  |  |
| C[C@]12N[C@H](Cc3ccccc31)c1ccccc12 [MK-801] |  |  |  | 0.00167 |  |  |
| CCC(C)NC(C)(c1ccccc1)C1CCCC1 (stereo not shown) [Compound 20, N-(1-cyclopentyl-1-phenylethyl)butan-2-amine] | 7.35 ± 0.075 |  | 56.7 |  | 2.45 |  |
| CC(N)(c1ccccc1)C1CCCCC1 (stereo not shown) [Compound 11, 1-cyclohexyl-1-phenylethan-1-amine] | 6.09 ± 0.120 | > 10 | 11.7 |  |  |  |
| NC(CC1CCC1)(c1ccccc1)C1CCCC1 (stereo not shown) [Compound 9, 2-cyclobutyl-1-cyclopentyl-1-phenylethan-1-amine] | 5.80 ± 0.095 | > 10 | -4 |  |  |  |
| CCC(N)(c1ccccc1)C1CCCC1 (stereo not shown) [Compound 4, 1-cyclopentyl-1-phenylpropan-1-amine] | 6.64 ± 0.101 | > 10 | 24.3 |  |  |  |
| CC(N)(c1ccccc1)C1CCCC1 (stereo not shown) [Compound 3, 1-cyclopentyl-1-phenylethan-1-amine] | 7.11 ± 0.041 | > 10 | 16.8 |  |  |  |
| CCNC(C)(c1ccccc1)C1CCCC1 (stereo not shown) [Compound 16, 1-cyclopentyl-N-ethyl-1-phenylethan-1-amine] | 6.93 ± 0.073 |  | 16 |  |  | 1.12 |
| CC(c1ccccc1)(C1CCCCC1)N1CCCCC1 (stereo not shown) [Compound 23, 1-(1-cyclohexyl-1-phenylethyl)piperidine] | 5.52 ± .118 |  | 71.6 |  |  | 2.63 |
| C=CCC(N)(c1ccccc1)C1CCCC1 (stereo not shown) [Compound 6, 1-cyclopentyl-1-phenylbut-3-en-1-amine] | 5.89 ± 0.072 |  | 23.1 |  | 3.16 |  |
| CNC(C)(c1ccccc1)C1CCCC1 (stereo not shown) [Compound 15, 1-cyclopentyl-N-methyl-1-phenylethan-1-amine] | 6.56 ± 0.064 |  | 18.2 |  | 0.501 |  |

— US20260347330A1, “N-METHYL-D-ASPARTATE RECEPTOR (NMDAR) ANTAGONISTS AND USES THEREOF” (Bexson Biomedical, Inc., priority 2022, published 2026)
